Source: patent publication US10752584B2 (EMORY UNIVERSITY, priority 2016, dated 2020)
Where two headings read alike, the source gives them in different places.

Tests used:
Assay type in all cases: cell-based
[1] = Cellular toxicity assay in human PBM cells; conditions: human, read-out: Cytotoxicity
Experimental: (§1) The toxicity of the compounds was assessed in Vero, human PBM, CEM (human lymphoblastoid), MT-2, and HepG2 cells, as described previously (see Schinazi R. F., Sommadossi J.-P., Saalmann V., Cannon D. L., Xie M.-Y., Hart G. C., Smith G. A. & Hahn E. F. Antimicrob. Agents Chemother. 1990, 34, 1061-67). Cycloheximide was included as positive cytotoxic control, and untreated cells exposed to solvent were included as negative controls. The cytotoxicity IC50 was obtained from the concentration-response curve using the median effective method described previously (see Chou T.-C. & Talalay P. Adv. Enzyme Regul. 1984, 22, 27-55; Belen'kii M. S. & Schinazi R. F. Antiviral Res. 1994, 25, 1-11).

[2] = Cellular toxicity assay in CEM cells; conditions: human, read-out: Cytotoxicity
Experimental: as §1

[3] = Cellular toxicity assay in Vero cells; conditions: African green monkey, read-out: Cytotoxicity
Experimental: as §1

wild type HBV = assay: Anti-HBV assay in AD-38 cell line; conditions: Hepatitis B virus; for EC50: read-out: Anti-HBV activity EC50; for EC90: read-out: Anti-HBV activity EC90
Experimental: The anti-HBV activity of the compounds was determined by treating the AD-38 cell line carrying wild type HBV under the control of tetracycline (see Ladner S. K., Otto M. J., Barker C. S., Zaifert K., Wang G. H., Guo J. T., Seeger C. & King R. W. Antimicrob. Agents Chemother. 1997, 41, 1715-20). Removal of tetracycline from the medium [Tet (−)] results in the production of HBV. The levels of HBV in the culture supernatant fluids from cells treated with the compounds were compared with that of the untreated controls. Control cultures with tetracycline [Tet (+)] were also maintained to determine the basal levels of HBV expression. 3TC was included as positive control.
The median effective concentrations (EC50) ranges of several of the compounds described herein against HBV are shown in Table 3: […]

[4] = Cellular toxicity assay in HepG2 cells; conditions: human, read-out: Cytotoxicity
Experimental: as §1

[5] = AD-38 cells, HBV in culture supernatant

SMILES | CC50 [1] | CC50 [2] | CC50 [3] | EC50 (wild type HBV) | EC90 (wild type HBV) | CC50 [4] | CC50 ([1]; human PBM cells) | CC50 ([2]; CEM lymphoblastoid cells) | EC50 (wild type HBV; [5]) | EC90 (wild type HBV; [5])
C=CCn1cc(CNC(=O)C(=O)c2c(C)c(C(=O)Nc3ccc(F)c(F)c3)n(C)c2C)nn1 [Compound 8] | 60.5 µM | 45.4 µM | > 100 µM | 0.001 to 0.009 µM | 0.01 to 0.09 µM | 98.6 µM | – | – | – | –
Cc1c(C(=O)C(=O)N2CCOCC2)c(C)n(C)c1C(=O)Nc1ccc(F)c(F)c1 [Compound 72, N-(3,4-difluorophenyl)-1,3,5-trimethyl-4-(2-morpholino-2-oxoacetyl)-1H-pyrrole-2-carboxamide] | – | – | 51 µM | – | – | 100 µM | 30 µM | 14 µM | 0.1 to 0.9 µM | 0.1 to 0.9 µM
C#CCNC(=O)C(=O)c1c(C)c(C(=O)Nc2ccc(S(F)(F)(F)(F)F)cc2)n(C)c1C [Compound 59, 1,3,5-trimethyl-4-(2-oxo-2-(prop-2-yn-1-ylamino)acetyl)-N-(4-(pentafluorosulfanyl)phenyl)-1H-pyrrole-2-carboxamide] | – | – | 12 µM | – | – | 43 µM | 44 µM | 3 µM | 1 to 9 µM | –
Cc1c(C(=O)C(=O)NCc2nn[nH]n2)c(C)n(C)c1C(=O)Nc1ccc(F)c(F)c1 [Compound 82, 4-(2-(((2H-tetrazol-5-yl)methyl)amino)-2-oxoacetyl)-N-(3,4-difluorophenyl)-1,3,5-trimethyl-1H-pyrrole-2-carboxamide] | – | – | > 100 µM | – | – | > 100 µM | > 100 µM | > 100 µM | 1 to 9 µM | –
Cc1c(C(=O)C(=O)NCc2c[nH]nn2)c(C)n(C)c1C(=O)Nc1ccc(F)c(F)c1 [Compound 38, 4-(2-(((1H-1,2,3-triazol-4-yl)methyl)amino)-2-oxoacetyl)-N-(3,4-difluorophenyl)-1,3,5-trimethyl-1H-pyrrole-2-carboxamide] | – | – | 45 µM | – | – | 85 µM | > 100 µM | 29 µM | 0.001 to 0.009 µM | 0.1 to 0.9 µM
Cn1cc(C(=O)C(=O)NCC#N)cc1C(=O)Nc1ccc(F)c(F)c1 [Compound 30, 4-(2-((cyanomethyl)amino)-2-oxoacetyl)-N-(3,4-difluorophenyl)-1-methyl-1H-pyrrole-2-carboxamide] | – | – | 91.4 µM | – | – | > 100 µM | – | > 100 µM | 1 to 9 µM | 1 to 9 µM
C#CCNC(=O)C(=O)c1c(C)c(C(=O)NC2(c3ccc(F)c(F)c3)CC2)n(C)c1C [Compound 57, N-(1-(3,4-difluorophenyl)cyclopropyl)-1,3,5-trimethyl-4-(2-oxo-2-(prop-2-yn-1-ylamino)acetyl)-1H-pyrrole-2-carboxamide] | – | – | > 100 µM | – | – | > 100 µM | > 100 µM | > 100 µM | 1 to 9 µM | –
Cn1cc(C(=O)C(=O)NOC2CCCC2)cc1C(=O)Nc1ccc(F)c(F)c1 [Compound 27, 4-(2-((cyclopentyloxy)amino)-2-oxoacetyl)-N-(3,4-difluorophenyl)-1-methyl-1H-pyrrole-2-carboxamide] | – | – | 80.1 µM | – | – | > 100 µM | – | 37.9 µM | 0.01 to 0.09 µM | 1 to 9 µM
Cn1cc(C(=O)C(=O)Nc2ccccc2)cc1C(=O)Nc1ccc(F)c(F)c1 [Compound 28, N-(3,4-difluorophenyl)-1-methyl-4-(2-oxo-2-(phenylamino)acetyl)-1H-pyrrole-2-carboxamide] | – | – | 13.4 µM | – | – | > 100 µM | – | > 100 µM | 0.01 to 0.09 µM | 1 to 9 µM
C#CCNS(=O)(=O)c1cc(C(=O)Nc2ccc(F)c(F)c2)n(C)c1 [Compound 17, N-(3,4-Difluorophenyl)-1-methyl-4-(N-(prop-2-yn-1-yl)sulfamoyl)-1H-pyrrole-2-carboxamide] | – | – | 41 µM | – | – | – | > 100 µM | 53 µM | 0.1 to 0.9 µM | 1 to 9 µM
C#CCNC(=O)C(=O)c1c(C)c(C(=O)Nc2ccc(OC(F)(F)F)cc2)n(C)c1C [Compound 54, 1,3,5-trimethyl-4-(2-oxo-2-(prop-2-yn-1-ylamino)acetyl)-N-(4-(trifluoromethoxy)phenyl)-1H-pyrrole-2-carboxamide] | – | – | 6 µM | – | – | – | 3 µM | 4 µM | 1 to 9 µM | –
